The values below come from patent US20210308138A1, “TISSUE TRANSGLUTAMINASE MODULATORS FOR MEDICINAL USE” (Aarhus Universitet, priority 2018, published 2021).

One data set has as its target T1, purified human TG2 (Homo sapiens, UniProt P21980).
T1 construct: purchased Zedira (Darmstadt, Germany); host or cells: insect cells
T1 sequence (P21980 1-687): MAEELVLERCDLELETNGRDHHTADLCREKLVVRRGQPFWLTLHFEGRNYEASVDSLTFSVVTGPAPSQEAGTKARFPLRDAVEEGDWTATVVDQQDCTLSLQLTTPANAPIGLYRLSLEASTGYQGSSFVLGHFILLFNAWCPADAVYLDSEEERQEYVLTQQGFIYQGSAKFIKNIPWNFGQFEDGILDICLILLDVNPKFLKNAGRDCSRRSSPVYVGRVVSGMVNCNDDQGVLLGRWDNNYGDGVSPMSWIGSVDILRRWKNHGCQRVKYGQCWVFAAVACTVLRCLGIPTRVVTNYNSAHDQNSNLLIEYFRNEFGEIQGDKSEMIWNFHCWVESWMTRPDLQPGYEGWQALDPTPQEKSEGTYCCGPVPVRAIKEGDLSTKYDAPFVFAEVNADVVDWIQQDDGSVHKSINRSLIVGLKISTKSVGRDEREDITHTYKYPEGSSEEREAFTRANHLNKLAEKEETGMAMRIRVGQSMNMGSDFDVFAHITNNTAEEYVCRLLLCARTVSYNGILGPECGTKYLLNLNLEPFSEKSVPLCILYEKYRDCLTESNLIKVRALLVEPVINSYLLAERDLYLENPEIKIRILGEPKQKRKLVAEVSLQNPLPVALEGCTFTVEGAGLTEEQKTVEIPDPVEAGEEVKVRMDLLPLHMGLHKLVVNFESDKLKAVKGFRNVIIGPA
Description: Conformational shift assay by native polyacrylamide gel electrophoresis (native-PAGE). It is filed as biochemical. The conditions noted are these: TG2 2.5 uM; 1 mM LDN-27219, 1 mM GTPNa2, or 0.2 mM Z-DON with CaCl2. On the procedure:
For the conformational shift assay using native polyacrylamide gel electrophoresis (native-PAGE) purified and functional human TG2 protein produced in insect cells was obtained from Zedira (Darmstadt, Germany).
Native gel electrophoresis experiments were performed using a method similar to those previously described (Pinkas D M, et al., PLoS Biol, 2007, 5(12), 2788-2796.) (Iversen R, et al., Proc Natl. Acad. Sci., 2014, 111(43), 17146-17151). Briefly, TG2 (2.5 uM) was incubated for 30 min at room temperature in preincubation buffer (75 mM imidazole, 0.5 mM EDTA, 5 mM DTT [pH 7.2], 10% DMSO) with or without 1 mM GTPNa2 or 1 mM LDN-27219 before adding Native Sample Buffer for Protein Gels (Bio-Rad) or in preincubation buffer with 0.2 mM Z-DON 30 min prior addition of 5 mM of CaCl2 for 20 min. Native buffer was added (dilution 1:2), and 1.5 ug of protein was loaded onto a 4-20% Criterion™ TGX Stain-Free™ gel (Bio-Rad) using Tris-glycine as the running buffer. For 75 min, 125 V was applied at 4° C. The bands were visualized using stain-free technology by exposing the gels to UV light and capturing the image using a PXi 4 Touch image analysis system (Syngene). Band intensity analysis was carried out using GeneTools 4 software (Syngene).

Data set [1] concerns vascular smooth muscle cells (VSMCs) potassium currents. Description: Whole-cell patch-clamp of K+ outward currents in isolated vascular smooth muscle cells. It counts as cell-based, rat. The conditions noted are these: LDN-27219 3·10^−5 mol/L 12 min; VA-5 5·10^−5 mol/L one hour incubation. On the procedure:
For isolation of VSMCs, rat mesenteric arteries were dissected as previously described, opened longitudinally and stored in ice-cold dissociation solution containing (mmol/L): 119 NaCl, 4.7 KCl, 1.18 KH2PO4, 1.17 MgSO4, 24.9 NaHCO3, 0.027 EDTA, and 11 glucose, pH=7.4. Arteries were then equilibrated during 10 min in a dissociation solution with bovine albumin serum (BSA; 1 mg/mL) at 37° C. and then exposed to the same solution supplemented with papain (0.5 mg/mL; Worthington Biochemical Corp., Lakewood, N.J., USA) and dithiothreitol (DTT; 1 mg/mL) at 37° C. for 8 min. Arteries were then washed in ice-cold dissociation solution and moved to dissociation solution containing BSA (1 mg/mL) and collagenase (0.7 mg/mL type F and 0.4 mg/mL type H; Worthington Biochemical Corp.) at 37° C. for 3 min. […]
Membrane currents were recorded under the whole-cell configuration of the patch-clamp technique using an Axon Multiclamp 700A amplifier (Axon instruments, Molecular Devices, CA, USA). […] Current-voltage relations were determined using 600 ms voltage ramps from −100 to 160 mV and a holding potential (Vh) of −65 mV for SMCs.
Amplitudes of K^+-outward currents were measured in control conditions and 12 min after the addition of LDN-27219 (3·10^−5 mol/L) to the extracellular solution by a perfusion system.

Data set [2] in a line: Pharmacokinetic study, single intravenous dose, non-compartmental model. It counts as in vivo. The conditions noted are these: mouse, blood, single 2 mg/kg intravenous dose, mice.

For `NNC(=O)CSc1nc2scc(-c3ccccc3)c2c(=O)n1-c1ccccc1` [LDN-27219], the “relative abundance of closed / open conformation of TG2” value at purified human TG2 was “increase the relative abundance of the closed conformation”. Also, the “potassium currents compared to control conditions” value in data set [1] is “potassium currents significantly bigger”. In data set [2], the clearance amounted to 52.3 mL/min/kg and the half-life was 4.89 h. In addition, in data set [2] (read-out: Volume of distribution), the Vd was 21.4 L/kg.

For orientation: clearance means the volume of plasma or blood freed of the substance per unit of time. High values mean a high capacity for elimination, low ones a low capacity for elimination. As usually defined, the half-life is how long it takes for the measured level to halve. A low value points to fast loss.
